“Also recorded” adds a separate entry of the source.
Key:
[1] = Penetration test: penetration of radioactively marked active substance through isolated apple leaf cuticles in diffusion cells; conditions: for % Penetration (after hours): acetone/tap water 20/80% by weight, 20-25° C., rel. humidity 56-60%, mean of 4-8 repetitions
Procedure: In this test, the penetration of active substances through enzymatically isolated cuticles of apple tree leaves was measured. The cuticles represent all green plant parts, such as leaf blade, petiole, stalk, trunk, hypocotyl and many fruits.
Leaves which were cut off in the stage of full development of apple trees of the Golden Delicious variety were used. The isolation of the cuticles was effected in a manner such that • first, leaf disks marked on the underside with dye and punched out were filled by means of vacuum infiltration with a pectinase solution (0.2 to 2% strength by weight) buffered to a pH between 3 and 4, • sodium azide was then added and • the leaf disks thus treated were allowed to stand until disintegration of the original leaf structure and detachment of the noncellular cuticle.
Thereafter, only those cuticles of the upper sides of the leaves which were free of stomata and hairs were further used. They were washed several times alternately with water and a buffer solution at pH 7. The cleaned cuticles obtained were finally drawn onto small Teflon plates and smoothed and dried with a gentle air jet.
In the next step, the cuticle membranes thus obtained were placed in stainless steel diffusion cells (=transport chambers) for membrane transport investigations. For this purpose, the cuticles were placed by means of forceps centrally on the silicone grease-coated edges of the diffusion cells and closed with a likewise greased ring. The arrangement was chosen so that the morphological outside of the cuticles faced outward, i.e. toward the air, while the original inside faced the interior of the diffusion cell. The diffusion cells were filled with water or with a mixture of water and solvent.
For determining the penetration, in each case 10 μl of a spray liquor of the composition mentioned in the examples were applied to the outside of a cuticle.
In each case the solvents listed below in the table (tap water or a mixture with 20% by weight of acetone/80% by weight of tap water) were used in the spray liquors.
After the application of the spray liquors, in each case the solvent was allowed to evaporate, and in each case the chambers were then turned around and placed in thermostated trays, air having a defined temperature and atmospheric humidity being blown onto the outside of the cuticle. The incipient penetration therefore took place at a relative humidity of 60% and a set temperature of 20 or 25° C. The active substance penetration was measured with radioactively marked active substance.

[2] = tested on: crop plant; experiment: Crop plant tolerance tests of TBEP versus other alkyl ester additives; assay type: in vivo; conditions: compared with other alkyl ester additives
[3] = after 3 hours, 0.2 g/l active substance without or with 0.5 g/l TBEP, apple leaf cuticles
[4] = after 24 hours, 0.2 g/l active substance without or with 0.5 g/l TBEP, apple leaf cuticles

| SMILES | % Penetration (after hours) [1, 3] | % Penetration (after hours) [1, 4] | also measured |
| --- | --- | --- | --- |
| CCCCOCCOP(=O)(OCCOCCCC)OCCOCCCC [TBEP, tributoxyethyl phosphate] |  |  | Effect of the penetration enhancer on uptake of active substances (in words) ([1]; summary of tables 1 and 2, apple leaf cuticles): considerable increase in uptake of the active substances; also recorded: advantageously higher increase in uptake of active substances than the penetration enhancers of the prior art; Crop plant tolerance (in words) [2]: more tolerant than other alkyl ester additives |
| CCOC(=O)C(C)Oc1ccc(Oc2nc3ccc(Cl)cc3o2)cc1 (stereo not drawn) [fenoxaprop-P-ethyl, ethyl 2-(4-(6-chlorobenzoxazol-2-yloxy)phenoxy)propionate] |  |  | % Penetration (after 24 hours) ([1]; apple tree, 24 h, 0.3 g/l): 0.3%; % Penetration (after 48 hours) ([1]; apple tree, 48 h, 0.3 g/l): 0.9% |
| CCOC(=O)C1=NOC(c2ccccc2)(c2ccccc2)C1 [isoxadifen-ethyl, ethyl 5,5-diphenyl-2-isoxazolinecarboxylate] | 1.7 (3) % | 17.4% |  |
| O=C(Nc1ccccc1)Nc1cnns1 [thidiazuron] |  |  | % Penetration (after hours) ([1]; after 6 hours, 0.2 g/l thidiazuron without or with 3 g/l TBEP, apple leaf cuticles): 0.6 (6) %; % Penetration (after hours) ([1]; after 24 hours, 0.2 g/l thidiazuron without or with 3 g/l TBEP, apple leaf cuticles): 0.9% |
| COc1ccccc1C(=O)NS(=O)(=O)c1ccc(C(=O)NC2CC2)cc1 [cyprosulfamide, 4-cyclopropylaminocarbonyl-N-(2-methoxybenzoyl)benzenesulfonamide] | 0.1 (3) % | 0.3% |  |
| CCOC(=O)C1=NN(c2ccc(Cl)cc2Cl)C(C)(C(=O)OCC)C1 (stereo not drawn) [mefenpyr-diethyl, ethyl 1-(2,4-dichlorophenyl)-5-(ethoxycarbonyl)-5-methyl-2-pyrazoline-3-carboxylate] | 0.4 (3) % | 4.9% |  |

From patent US20100048516A1, “PENETRATION ENHANCER FOR FUNGICIDES” (Bayer CropScience AG, priority 2006, published 2010)
